According to patent publication US20080039444A1, “COMPOUNDS” (GLAXO GROUP LIMITED, priority 2006, published 2008):
Counter-ions that a name gives are not always drawn. Like-named read-outs stand apart in the source and are kept apart here.

Columns and labels:
human H1 receptor [1] = target: T1, human H1 receptor (Homo sapiens, UniProt P35367); assay: Histamine H1 functional antagonist assay (FLIPR): determination of antagonist pA2; format: cell-based
T1 construct: expressed in transfected cells
Procedure: (§1) The human H1 receptor is cloned using known procedures described in the literature [Biochem. Biophys. Res. Commun., 201(2):894 (1994)]. Chinese hamster ovary (CHO) cells stably expressing the human H1 receptor are generated according to known procedures described in the literature [Br. J. Pharmacol., 117(6):1071 (1996)].
(§2) Histamine H1 functional antagonist assay: Determination of antagonist pA2 and duration
The histamine H1 receptor expressing CHO cells are seeded into non-coated black-walled clear bottom 96-well tissue culture plates as described above. Following overnight culture, growth medium is removed from each well, washed with 200 μl phosphate buffered saline (PBS) and is replaced with 50 μl loading dye (250 μM Brilliant Black, 1 μM Fluo-4 diluted in Tyrodes buffer+probenecid (145 mM NaCl, 2.5 mM KCl, 10 mM HEPES, 10 mM D-glucose, 1.2 mM MgCl2, 1.5 mM CaCl2, 2.5 mM probenecid, pH adjusted to 7.40 with NaOH 1.0 M)). Cells are incubated for 45 min at 37° C. The loading buffer is removed and the cells are washed as above, and 90 μl of Tyrodes buffer+probenecid is added to each well. 10 μl of test compound, diluted to the required concentration in Tyrodes buffer+probenecid (or 10 μl Tyrodes buffer+probenecid as a control) is added to each well and the plate is incubated for 30 min at 37° C., 5% CO2. The plates are then placed into a FLIPR™ (Molecular Devices, UK) to monitor cell fluorescence (λex=488 nm, λEM=540 nm) in the manner described in Sullivan et al., (In: Lambert DG (ed.), Calcium Signaling Protocols, New Jersey: Humana Press, 1999, 125-136) before and after the addition of 50 μl histamine over a concentration range of 1 mM-0.1 nM. The resultant concentration response curves are analysed by non-linear regression using a standard four parameter logistic equation to determine the histamine EC50, the concentration of histamine required to produce a response of 50% of the maximum response to histamine. The antagonist pA2 is calculated using the following standard equation: pA2=log(DR-1)- log[B] where DR=dose ratio, defined as EC50antagonist-treated/EC50control and [B]=concentration of antagonist.

human H1 receptor [2] = target: T1, human H1 receptor; assay: Histamine H1 functional antagonist assay: antagonist duration after washout; format: cell-based; settings: at one or more time points
Procedure: as §1, §2
To determine the antagonist duration, cells are cultured overnight in non-coated black-walled clear bottom 96-well tissue culture plates, are washed with PBS and are incubated with a concentration of antagonist chosen to give an approximate DR in the range 30-300. Following the 30 min antagonist incubation period, the cells are washed two or three times with 200 μl of PBS and then 100 μl Tyrodes buffer is added to each well to initiate antagonist dissociation. Following incubation for predetermined times, typically 30-270 min at 37° C., the cells are then washed again with 200 μl PBS and are incubated with 100 μl Tyrodes buffer containing Brilliant Black, probenecid and Fluo-4 for 45 min at 37° C., as described above. After this period, the cells are challenged with histamine in the FLIPR™ as described above. The dose ratio at each time point is used to determine the fractional H1 receptor occupancy by the following equation: fractional receptor occupancy=(DR-1)/DR. The decrease in receptor occupancy over time approximates to a straight line and is analysed by linear regression. The slope of this straight line fit is used as an index of the dissociation rate of the antagonist. The dose ratios for antagonist treated cells and for antagonist treated and washed cells at each time point are used to calculate a relative dose ratio (rel DR) which is also used as an index of antagonist duration. Antagonists with long duration of action produce rel DR values close to 1, and antagonists with short duration of action produce rel DR values that approaches the dose ratio value obtained for antagonist treatment alone.

[3] = CNS penetration (intravenous bolus or infusion at steady state, blood and brain levels); format: in vivo, rat; settings: male CD Sprague Dawley rats
Procedure: (i) CNS penetration by bolus administration
Compounds are dosed intravenously at a nominal dose level of 1 mg/kg to male CD Sprague Dawley rats. Compounds are formulated in 5% DMSO/45% PEG200/50% water. Blood samples are taken under terminal anaesthesia with isoflurane at 5 min post-dose and the brains are also removed for assessment of brain penetration. Blood samples are taken directly into heparinised tubes. Blood samples are prepared for analysis using protein precipitation and brain samples are prepared using extraction of drug from brain by homogenisation and subsequent protein precipitation. The concentration of parent drug in blood and brain extracts is determined by quantitative LC-MS/MS analysis using compound-specific mass transitions.
(ii) CNS penetration following intravenous infusion at steady state
A loading dose of the compounds is given to male CD Sprague Dawley rats at a nominal dose level of 0.4 mg/kg. The compounds are then infused intravenously for 4 h at a nominal dose level of 0.1 mg/kg/h. Compounds are formulated in 2% DMSO/30% PEG200/68% water. Serial or terminal blood samples are taken at 0.5, 1.5, 2.5, 3, 3.5 and 4 h post dose. The final blood sample is collected under terminal anaesthesia with isoflurane and the brains are also removed for assessment of brain penetration. Blood samples are taken directly into heparinised tubes. Blood samples are prepared for analysis using protein precipitation and brain samples are prepared using extraction of drug from brain by homogenisation and subsequent protein precipitation. The concentration of parent drug in blood and brain extracts is determined by quantitative LC-MS/MS analysis using compound-specific mass transitions.

human H1 receptor [4] = target: T1, human H1 receptor; assay: Histamine H1 functional antagonist assay (FLIPR): determination of functional pKi values; format: cell-based; settings: CHO cells expressing human H1, histamine at EC80; read-out: average pKi (pKb) at H1 (converted)
Excerpt: H1 receptor cell line generation and FLIPR assay protocol
1. Generation of histamine H1 cell line
as §1
Histamine H1 functional antagonist assay: Determination of functional pKi values […]
10 μl of test compound, diluted to the required concentration in Tyrodes buffer+probenecid (or 10 μl Tyrodes buffer+probenecid as a control) is added to each well and the plate is incubated for 30 min at 37° C., 5% CO2. The plates are then placed into a FLIPR™ (Molecular Devices, UK) to monitor cell fluorescence (λex=488 nm, αEM=540 nm) in the manner described in Sullivan et al., (In: Lambert DG (ed.), Calcium Signaling Protocols, New Jersey: Humana Press, 1999, 125-136) before and after the addition of 10 μl histamine at a concentration that results in the final assay concentration of histamine being EC80.
Functional antagonism is indicated by a suppression of histamine induced increase in fluorescence, as measured by the FLIPR™ system (Molecular Devices). By means of concentration effect curves, functional affinities are determined using standard pharmacological mathematical analysis.

[5] = CHO cells expressing human H1, histamine concentration response curves, read-out: average pA2 values at H1 (converted)

T1 sequence (P35367 whole entry): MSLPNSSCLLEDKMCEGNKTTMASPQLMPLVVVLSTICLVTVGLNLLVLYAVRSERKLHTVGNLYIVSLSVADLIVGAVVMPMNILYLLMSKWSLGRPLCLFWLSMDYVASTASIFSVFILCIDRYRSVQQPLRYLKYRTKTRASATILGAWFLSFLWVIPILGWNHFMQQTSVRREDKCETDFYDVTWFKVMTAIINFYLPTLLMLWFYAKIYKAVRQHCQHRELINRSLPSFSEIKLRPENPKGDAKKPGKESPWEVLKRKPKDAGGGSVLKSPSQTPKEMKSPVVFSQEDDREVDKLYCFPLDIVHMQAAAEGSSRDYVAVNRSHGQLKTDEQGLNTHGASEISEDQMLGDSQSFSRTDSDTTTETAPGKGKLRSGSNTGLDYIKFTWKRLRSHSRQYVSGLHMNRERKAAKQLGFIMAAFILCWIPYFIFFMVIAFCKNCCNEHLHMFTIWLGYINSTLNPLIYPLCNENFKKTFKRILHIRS

Kb (human H1 receptor [1]; [5]) [µM] | SMILES | duration of action compared with azelastine in the histamine H1 functional antagonist assay (human H1 receptor [2]) | other results
< 0.01 | CN(CCCCc1ccc(OCCCN2CCCCCC2)cc1)CCn1nc(Cc2ccc(Cl)cc2)c2ccccc2c1=O [Example 3, 4-[(4-Chlorophenyl)methyl]-2-{2-[[4-(4-{[3-(hexahydro-1H-azepin-1-yl)propyl]oxy}phenyl)butyl](methyl)amino]ethyl}-1(2H)-phthalazinone] | – | –
< 0.001 | O=c1c2ccccc2c(Cc2ccc(Cl)cc2)nn1C[C@H]1CCCN1CCCCCc1ccc(OCCCN2CCCCCC2)cc1 [Example 6, 4-[(4-Chlorophenyl)methyl]-2-({(2R)-1-[5-(4-{[3-(hexahydro-1H-azepin-1-yl)propyl]oxy}phenyl)pentyl]-2-pyrrolidinyl}methyl)-1(2H)-phthalazinone] | – | –
< 0.01 | O=c1c2ccccc2c(Cc2ccc(Cl)cc2)nn1C1CCCN(CCCc2ccc(OCCCN3CCCCCC3)cc2)CC1 (stereo not shown) [Example 12, 4-[(4-Chlorophenyl)methyl]-2-{1-[3-(4-{[3-(hexahydro-1H-azepin-1-yl)propyl]oxy}phenyl)propyl]hexahydro-1H-azepin-4-yl}-1(2H)-phthalazinone] | – | –
< 0.01 | O=c1c2ccccc2c(Cc2ccc(O)cc2)nn1C[C@H]1CCCN1CCCCc1ccc(OCCCN2CCCCCC2)cc1 [Example 8, 2-({(2R)-1-[4-(4-{[3-(Hexahydro-1H-azepin-1-yl)propyl]oxy}phenyl)butyl]-2-pyrrolidinyl}methyl)-4-[(4-hydroxyphenyl)methyl]-1(2H)-phthalazinone] | longer duration of action than azelastine | –
– | O=C(NCCN1CCCC(n2nc(Cc3ccc(Cl)cc3)c3ccccc3c2=O)CC1)c1ccc2c(c1)CCN(C1CCC1)CC2 (stereo not shown) [Example 18, N-(2-{4-[4-[(4-Chlorophenyl)methyl]-1-oxo-2(1H)-phthalazinyl]hexahydro-1H-azepin-1-yl}ethyl)-3-cyclobutyl-2,3,4,5-tetrahydro-1H-3-benzazepine-7-carboxamide diformate salt] | longer duration of action than azelastine | Kb (human H1 receptor [1]): < 0.01 µM
< 0.001 | O=c1c2ccccc2c(Cc2ccc(F)cc2)nn1C[C@H]1CCCN1CCCCc1ccc(OCCCN2CCCCCC2)cc1 [Example 9, 4-[(4-Fluorophenyl)methyl]-2-({(2R)-1-[4-(4-{[3-(hexahydro-1H-azepin-1-yl)propyl]oxy}phenyl)butyl]-2-pyrrolidinyl}methyl)-1(2H)-phthalazinone] | longer duration of action than azelastine | –
< 0.01 | O=c1c2ccccc2c(Cc2ccc(Cl)cc2)nn1C1CCCN(CCc2ccc(OCCCN3CCCCCC3)cc2)CC1 (stereo not shown) [Example 11, 4-[(4-Chlorophenyl)methyl]-2-{1-[2-(4-{[3-(hexahydro-1H-azepin-1-yl)propyl]oxy}phenyl)ethyl]hexahydro-1H-azepin-4-yl}-1(2H)-phthalazinone] | – | –
– | O=c1c2ccncc2c(Cc2ccc(Cl)cc2)nn1C[C@H]1CCCN1CCCCc1ccc(OCCCN2CCCCCC2)cc1 [Example 23, 4-[(4-Chlorophenyl)methyl]-2-({(2R)-1-[4-(4-{[3-(hexahydro-1H-azepin-1-yl)propyl]oxy}phenyl)butyl]-2-pyrrolidinyl}methyl)pyrido[3,4-d]pyridazin-1(2H)-one] | longer duration of action than azelastine | Kb (human H1 receptor [1]): < 0.001 µM
< 0.01 | O=c1c2ccccc2c(Cc2ccc(Cl)cc2)nn1C[C@H]1CCCN1CCCOc1ccc2c(c1)CCN(C1CCC1)CC2 [Example 15, 4-[(4-Chlorophenyl)methyl]-2-[((2R)-1-{3-[(3-cyclobutyl-2,3,4,5-tetrahydro-1H-3-benzazepin-7-yl)oxy]propyl}-2-pyrrolidinyl)methyl]-1(2H)-phthalazinone] | longer duration of action than azelastine | –
– | O=c1c2ccccc2c(Cc2ccc(Cl)cc2)nn1C1CCCN(CCCOc2ccc3c(c2)CCN(C2CCC2)CC3)CC1 (stereo not shown) [Example 16, 4-[(4-Chlorophenyl)methyl]-2-(1-{3-[(3-cyclobutyl-2,3,4,5-tetrahydro-1H-3-benzazepin-7-yl)oxy]propyl}hexahydro-1H-azepin-4-yl)-1(2H)-phthalazinone formate salt] | – | CNS penetration compared with azelastine [3]: comparable CNS penetration to azelastine
– | COc1ccc(Cc2nn(C[C@H]3CCCN3CCCCc3ccc(OCCCN4CCCCCC4)cc3)c(=O)c3ccccc23)cc1 [Example 7, 2-({(2R)-1-[4-(4-{[3-(Hexahydro-1H-azepin-1-yl)propyl]oxy}phenyl)butyl]-2-pyrrolidinyl}methyl)-4-{[4-(methyloxy)phenyl]methyl}-1(2H)-phthalazinone diformate] | longer duration of action than azelastine | Ki (human H1 receptor [4]): < 0.01 µM; Kb (human H1 receptor [1]): < 0.001 µM; CNS penetration compared with azelastine [3]: lower CNS penetration than azelastine
